Data reported in patent US20150150843A1, “CARDIOPROTECTIVE COMPOUNDS, THEIR USE WITH CHEMOTHERAPY, AND METHODS FOR IDENTIFYING THEM” (priority 2012, published 2015).
Marks after values point to notes of the source that are not given here.

Key:
[1] = system: JNK responsive reporter AP-1 in HL 1 cells; test: AP-1 luciferase reporter assay in HL 1 cells; assay type: cell-based, mouse; conditions: doxorubicin-treated
Text: (§1) In an effort to identify pathways involved in VIS and DPU mediated cardioprotection, we screened a panel of kinases by western blotting. […] To confirm the cardiomyocyte-specific inhibition of JNK signaling, we used a luciferase-based AP1 reporter assay to detect JNK activation in HL 1 and DU145 cells.

[2] = system: prostate tumor cell DU145; test: CellTiter Glo viability of doxorubicin-treated DU145; assay type: cell-based, human; conditions: VIS and DPU at 20 μM
Method: (§2) Cardiomyocyte line HL-1 was derived from mouse atrium tumor. Culturing conditions were previously published (Claycomb et al., Proc. Natl. Acad. Sci. USA, 95, 2979, 1998). HL 1 was cultured with Claycomb medium (Sigma) supplemented with fetal bovine serum (FBS), penicillin/streptomycin, L-glutamine and norepinephrine. DU145 and LNCaP are human prostate tumor lines, while MCF7 is a human breast cancer line. DU145 and MCF7 were cultured with high glucose DMEM (Life Sciences) supplemented with penicillin/streptomycin and L-glutamine, and LNCaP was grown in RPMI-1640 (Life Sciences) plus penicillin/streptomycin and L-glutamine. […] All experiments were done at least three times, and the statistics were obtained by Student T-test.

mouse cardiac sections = test: TUNEL apoptosis assay in hearts of doxorubicin-treated mice; assay type: in vivo; conditions: one day
Method: To determine if the ability of VIS and DPU to protect cardiomyocytes from apoptosis was conserved in mammals, we treated mice with doxorubicin with or without co-treatment with VIS or DPU. One day later, hearts were collected for apoptosis assays using TUNEL (Supplement FIG. 1b). […] Therefore, VIS and DPU appear to prevent doxorubicin-induced cardiac apoptosis in both zebrafish and mice.
One day after injection, hearts were collected and fixed with 4% PFA at 4° C. overnight and then were subjected to paraffin embedding and sectioning. The heart sections were stained using the TMR TUNEL kit (Roche) following the manufacturer's protocol. The stained sections were scanned with MetaMorph-assisted slide scanning microscopy, and apoptosis indices were quantified as TUNEL positive cell/mm^2. All experiments were done at least three times, and the statistics were obtained by Student T-test.

mouse heart function [3] = test: Acute doxorubicin-induced HF model in mice, echocardiography; assay type: in vivo; conditions: five days
Method: Five days after the initial injection, we assessed heart function by M mode echocardiogram.
Strain C57BL/6 male mice between 8-10 weeks of age were purchased from Charles River Laboratories. […] In the control group, plain vehicle and saline were injected instead. Five days later, injected mice were subjected to echocardiography. Five days after treatment, transthoracic echocardiographic images were obtained and interpreted by an echocardiographer blinded to the experimental design using a 13.0-MHz linear probe (Vivid 7; GE Medical System, Milwaukee, Wis.) as described (Zou et al., Crit. Care Med. 38, 1335-1342, 2010; Neilan et al., Eur. Heart J. 27, 1868-1875, 2006). Mice were lightly anesthetized with ketamine (20 mg/kg). M-mode images were obtained from a parasternal short-axis view at the midventricular level with a clear view of papillary muscle. Tissue Doppler imaging was collected at a frame rate of 483 frames per second and a depth of 1 em. LV end-diastolic internal diameter (LVIDd) and LV end systolic internal diameter (LVIDS) were measured. Fractional shortening (FS) was defined as [(LVIDd−LVIDS)/LVIDd]. Strain rate of the posterior wall was analyzed offline in an EchoPAC workstation (GE Healthcare, Wauwatosa, Wis.). A region of interest (axial distance, 0.2 mm; width, 0.6 mm) was manually positioned in the middle of the posterior wall. A strain length of 0.5 mm was used. Peak systolic strain rate was measured. The temporal smoothing filters were turned off for all measurements. The values of three consecutive cardiac cycles were averaged.

zebrafish heart = test: Doxorubicin-induced heart failure model in zebrafish (heart contraction, tail circulation, morphology, fractional shortening); assay type: in vivo
Method: For screening, about 400 nl of small molecule stock solution was transferred from 96-well format library plates to fish plate with transfer pins. At dpf 3, treated fish were screened under inverted fluorescent microscope (100×) for heart contraction and tail circulation.
Zebrafish have been used successfully for high-throughput screening (HTS) to identify chemical compounds that suppress genetic defects and other disease states (Peterson et al., Methods Cell. Biol. 105, 525-541, 2011). Compared to cell-based in vitro systems, in vivo screening offers several advantages, including the ability to discover compounds with therapeutic activity even without knowing their molecular targets. In addition, compounds discovered by in vivo screening are selected for their ability to be effective in the complex context of the disease of interest. […] Heart contraction was dramatically compromised, resulting in the absence of blood cell circulation within tail blood vessels. Using a high-speed camera and a custom analysis algorithm, we were able to calculate the fractional shortening of the zebrafish hearts. […] Therefore, the zebrafish model appears to recapitulate several key aspects of the doxorubicin-induced heart failure seen in humans, including increased apoptosis and reduced contractility. Because the doxorubicin-induced changes in cardiac function and blood circulation are easily detected visually, they formed the basis of an assay to identify small molecules suppressing doxorubicin-induced cardiotoxicity.
Hearts were surgically removed and briefly fixed with 4% paraformaldehyde (PFA) for 20 minutes at room temperature. The fixed heart samples were embedded in mounting medium and flattened with slide and coverslip. Confocal images were captured from the flattened hearts, and red nuclei were counted. All experiments were done at least three times, and the statistics were obtained by Student T-test.
In order to confirm and quantify the activity of compounds with cardioprotective properties identified in the preceding assays, a high-resolution assay of cardiac function, described by Shin et al. (Physiol Genomics. 2010 July; 42(2): 300-309), can be used to measure heart fractional shortening.

tumor line DU145 = test: Doxorubicin-induced apoptosis in tumor line DU145; assay type: cell-based, human
Method: (§3) Cardiomyocyte line HL-1 was derived from mouse atrium tumor. Culturing conditions were previously published (Claycomb et al., Proc. Natl. Acad. Sci. USA, 95, 2979, 1998). HL 1 was cultured with Claycomb medium (Sigma) supplemented with fetal bovine serum (FBS), penicillin/streptomycin, L-glutamine and norepinephrine. DU145 and LNCaP are human prostate tumor lines, while MCF7 is a human breast cancer line. DU145 and MCF7 were cultured with high glucose DMEM (Life Sciences) supplemented with penicillin/streptomycin and L-glutamine, and LNCaP was grown in RPMI-1640 (Life Sciences) plus penicillin/streptomycin and L-glutamine. […] Apoptosis indices were quantified as percentage of AnnexinV positive cells. All experiments were done at least three times, and the statistics were obtained by Student T-test.

[4] = system: JNK phosphorylation in HL 1 cells; test: JNK phosphorylation western blot in HL 1 cells; assay type: cell-based, mouse
Text: as §1
Blots were quantified by densitometry with Image J. All experiments were done at least three times, and the statistics were obtained by Student T-test.

[5] = system: JNK phosphorylation in DU145 cells; test: JNK phosphorylation western blot in DU145 cells; assay type: cell-based, human
Text: as §1

cardiomyocyte HL1 = test: CellTiter Glo viability of doxorubicin-treated HL1; assay type: cell-based, mouse; conditions: VIS and DPU at 20 μM
Method: as §2

[6] = system: JNK responsive reporter AP-1 in DU145 cells; test: AP-1 luciferase reporter assay in DU145 cells; assay type: cell-based, human; conditions: doxorubicin-treated
Text: as §1

zebrafish cardiomyocytes = test: TUNEL staining of apoptotic cardiomyocytes in doxorubicin-treated zebrafish; assay type: in vivo
Method: Because cardiomyocyte apoptosis plays a critical role in mediating doxorubicin-induced cardiomyopathy, we sought to determine if VIS Aand DPU attenuate heart failure by inhibiting cardiomyocyte apoptosis.
Hearts were surgically removed and fixed with 4% paraformaldehyde (PFA) for 20 minutes at room temperature. After staining with an in situ TUNEL kit (Roche), heart samples were embedded in mounting medium and flattened with slide and coverslip, and then subjected to confocal microscopy. The data were quantified as percentage of TUNEL positive cardiomyocytes. All experiments were done at least three times, and the statistics were obtained by Student T-test.

cardiomyoyte HL1 = test: AnnexinV apoptosis assay in cardiomyocyte HL1; assay type: cell-based, mouse
Method: as §3

tumor line MCF7 = test: Doxorubicin-induced apoptosis in tumor line MCF7; assay type: cell-based, human
Method: as §3

mouse heart function [7] = test: Chronic low-dose doxorubicin treatment in mice, echocardiography; assay type: in vivo; conditions: low doses of doxorubicin 5 times over 5 weeks
Text: Labels: DMSO: DMSO-treated control samples; Dox: doxorubicin-treated samples; Dox+VIS: doxorubicin and VIS co-treated samples; Dox+DPU: doxorubicin and DPU co-treated samples.

[8] = system: caspases 3, 8 and 9 in cardiomyocyte; test: Caspase 3, 8 and 9 activity (fluorogenic substrates) in cardiomyocyte; assay type: cell-based
Method: We also examined effects of the compounds on apoptosis (via TUNEL staining) in cardiomyocytes and tumor cells.
Specific activity of caspases 3, 8 and 9 were assessed semi-quantitatively using the corresponding fluorogenic substrates following manufacturer's protocols (R&D Systems). All experiments were done at least three times, and the statistics were obtained by Student T-test.

[9] = system: neonatal rat cardiomyoyte; test: Doxorubicin-induced apoptosis in neonatal rat cardiomyocyte; assay type: cell-based
tumor line LNCaP = test: Doxorubicin-induced apoptosis in tumor line LNCaP; assay type: cell-based, human
Method: as §3

[10] = patients; cited from earlier work
[11] = zebrafish treated with doxorubicin
[12] = mice, 15 mg/kg doxorubicin IP, with or without 25 mg/kg VIS IP, mean ± SEM

Q: With `COc1c2ccoc2cc2oc(C)cc(=O)c12` [VIS, visnagin] as the compound, how does the AP-1 luciferase activity [1] read?
A: repressed

Q: What about the “viability of doxorubicin-treated prostate tumor cell DU145” value [2] of the same compound?
A: do not increase viability

Q: And the “doxorubicin-induced apoptosis in mouse heart (TUNEL)” value (mouse cardiac sections; 15 mg/kg doxorubicin plus 25 mg/kg visnagin or 10 mg/kg diphenylurea IP)?
A: significantly decreased doxorubicin-induced apoptosis

Q: What about the “fractional shortening and strain rate compared to mice treated with doxorubicin alone” value (mouse heart function [3]; 25 mg/kg VIS immediately prior to 15 mg/kg doxorubicin IP) of the same compound?
A: significant improvement

Q: What about the “cardiac contractility as measured by fractional shortening” value (zebrafish heart; [11]) of the same compound?
A: completely rescued cardiac contractility

Q: And the “overt morphological effects of doxorubicin on the heart (ventricular compaction, pericardial edema)” value (zebrafish heart; [11])?
A: prevented the overt morphological effects of doxorubicin on the heart

Q: And the doxorubicin-induced apoptosis (tumor line DU145)?
A: do not reduce doxorubicin-induced apoptosis

Q: What about the “doxorubicin-induced JNK phosphorylation” value [4] of the same compound?
A: inhibit doxorubicin-induced JNK phosphorylation

Q: And the “doxorubicin-induced JNK phosphorylation” value [5]?
A: do not inhibit doxorubicin-induced JNK phosphorylation

Q: What about the “viability of doxorubicin-treated cardiomyocyte HL1” value (cardiomyocyte HL1) of the same compound?
A: increase viability

Q: What about the AP-1 luciferase activity [6] of the same compound?
A: not repressed

Q: What about the “number of apoptotic cardiomyocytes induced by doxorubicin (TUNEL)” value (zebrafish cardiomyocytes; 100 μM doxorubicin plus 20 μM rescue compound, two days) of the same compound?
A: greatly reduced the number of apoptotic cardiomyocytes

Q: What about the “doxorubicin-induced apoptosis, AnnexinV staining” value (cardiomyoyte HL1) of the same compound?
A: reduce doxorubicin-induced apoptosis

Q: What about the doxorubicin-induced apoptosis (tumor line MCF7) of the same compound?
A: do not reduce doxorubicin-induced apoptosis

Q: And the “doxorubicin-induced reduction of fractional shortening” value (mouse heart function [7])?
A: partially reversed the reduction

Q: And the “doxorubicin-induced reduction of strain rate” value (mouse heart function [7])?
A: partially reversed the reduction

Q: What about the “activity of caspases 3, 8 and 9 activated by doxorubicin” value [8] of the same compound?
A: inhibited

Q: What about the “doxorubicin-induced apoptosis, AnnexinV staining” value [9] of the same compound?
A: inhibit doxorubicin-induced apoptosis

Q: And the “doxorubicin-induced apoptosis, TUNEL staining” value [9]?
A: inhibit doxorubicin-induced apoptosis

Q: What about the doxorubicin-induced apoptosis (tumor line LNCaP) of the same compound?
A: do not reduce doxorubicin-induced apoptosis

Q: What does the source list for `COc1cccc2c1C(=O)c1c(O)c3c(c(O)c1C2=O)C[C@@](O)(C(=O)CO)C[C@@H]3O[C@H]1C[C@H](N)[C@H](O)[C@H](C)O1` [doxorubicin]?
A: increase in apoptosis in mouse cardiac sections (TUNEL) (mouse cardiac sections; 15 mg/kg doxorubicin IP): 3- to 4 fold; FS (mouse heart function [3]; [12]): 44 ± 2 %; HR (mouse heart function [3]; [12]): 609 ± 23 beats/min; LVIDs (mouse heart function [3]; [12]): 1.78 ± 0.10 mm; Strain Rate (mouse heart function [3]; [12]): 16 ± 1*** 1/sec; atrium and ventricle cardiomyocyte numbers compared to controls (zebrafish heart; 100 μM doxorubicin for two days, cmlc2-dsRed line): significantly reduced; heart rate and contractility (zebrafish heart; 100 μM doxorubicin from 1 dpf, assessed at 3 dpf): dramatically reduced; pericardial edema (zebrafish heart; 100 μM doxorubicin from 1 dpf, two days exposure): extensive pericardial edema; cumulative dosages that exponentially increase the risk of heart failure [10]: above 450 mg/m^2; increase in apoptotic cardiomyocytes (TUNEL) (zebrafish cardiomyocytes; doxorubicin 100 μM, 4 dpf zebrafish): four-fold increase
